# Measured values: patent US20140329797A1, “SUBSTITUTED OXADIAZOLYL PYRIDINONES AND OXADIAZOLYL PYRIDAZINONES AS HIF INHIBITORS” (Bayer Intellectual Property GmbH, priority 2011, published 2014)
# Tested on: HCT 116 cells transfected with a luciferase reporter under the control of an HIF-responsive sequence
# Experiment: HIF-luciferase assay
# Assay type: cell-based
# Settings: Homo sapiens; HCT 116 HIF-luciferase reporter cells, hypoxia chamber (1% O2), 24 h; in some cases means of up to four individual determinations
# Description: B-1. HIF-Luciferase Assay
# HCT 116 cells were transfected in a stable manner with a plasmid which contained a luciferase reporter under the control of an HIF-responsive sequence. These cells were sown in microtitre plates [20000 cells/cavity in RPMI 1640 medium with 10% foetal calf serum (FCS) and 100 μg/ml of hygromycin]. Incubation was carried out overnight under standard conditions (5% CO2, 21% O2, 37° C., moistened). The following morning the cells were incubated with various concentrations of the test substances (0-10 μmol/l) in a hypoxia chamber (1% O2). After 24 h, Bright Glo reagent (Promega, Wisconsin, USA) was added in accordance with the manufacturer's instructions, and after 5 min the luminescence was measured. Cells which were incubated under normoxia served as background controls.
row,IC50 [µM],Compound
1,0.005,"CC(C)(O)Cc1cccc(Cn2cc(-c3nc(-c4ccc(OC(F)(F)F)cc4)no3)ccc2=O)c1 [Example 41, 1-[3-(2-Hydroxy-2-methylpropyl)benzyl]-5-{3-[4-(trifluoromethoxy)phenyl]-1,2,4-oxadiazol-5-yl}pyridin-2(1H)-one]"
2,0.01,"O=c1ccc(-c2nc(-c3ccc(OC(F)(F)F)cc3)no2)nn1Cc1cccc(C2(CO)CC2)c1 [Example 92, 2-{3-[1-(Hydroxymethyl)cyclopropyl]benzyl}-6-{3-[4-(trifluoromethoxy)phenyl]-1,2,4-oxadiazol-5-yl}pyridazin-3(2H)-one]"
3,0.0125,"CNc1ccc(Cn2cc(-c3nc(-c4ccc(OC(F)(F)F)cc4)no3)ccc2=O)cn1 [Example 59, 1-{[6-(Methylamino)pyridin-3-yl]methyl}-5-{3-[4-(trifluoromethoxy)phenyl]-1,2,4-oxadiazol-5-yl}pyridin-2(1H)-one]"
4,0.005,"CC(=O)OC1(c2cccc(Cn3nc(-c4nc(-c5ccc(OC(F)(F)F)cc5)no4)ccc3=O)c2)CC1 [Example 89, 1-(3-{[6-oxo-3-{3-[4-(trifluoromethoxy)phenyl]-1,2,4-oxadiazol-5-yl}pyridazin-1(6H)-yl]methyl}phenyl)cyclopropyl acetate]"
5,0.0015,"O=c1ccc(-c2nc(-c3ccc(OC(F)(F)F)cc3)no2)nn1Cc1ccnc(N2CCN(C3CC3)CC2)c1 [Example 96, 2-{[2-(4-Cyclopropylpiperazin-1-yl)pyridin-4-yl]methyl}-6-{3-[4-(trifluoromethoxy)phenyl]-1,2,4-oxadiazol-5-yl}pyridazin-3(2H)-one]"
6,0.015,"CC(C)(c1ccc(-c2noc(-c3ccc(=O)n(Cc4cccc(C5(CO)CC5)c4)c3)n2)cc1)C(F)(F)F [Example 44, 1-{3-[1-(Hydroxymethyl)cyclopropyl]benzyl}-5-{3-[4-(1,1,1-trifluoro-2-methylpropan-2-yl)phenyl]-1,2,4-oxadiazol-5-yl}pyridin-2(1H)-one]"
7,0.02,"O=C(c1cccc(Cn2nc(-c3nc(-c4ccc(OC(F)(F)F)cc4)no3)ccc2=O)c1)N1CC(O)C1 [Example 76, 2-{3-[(3-Hydroxyazetidin-1-yl)carbonyl]benzyl}-6-{3-[4-(trifluoromethoxy)phenyl]-1,2,4-oxadiazol-5-yl}pyridazin-3(2H)-one]"
8,0.06,"CNC(=O)c1cccc(Cn2nc(-c3nc(-c4ccc(C(C)(C)C(F)(F)F)cc4)no3)ccc2=O)c1 [Example 70, N-Methyl-3-{[6-oxo-3-{3-[4-(1,1,1-trifluoro-2-methylpropan-2-yl)phenyl]-1,2,4-oxadiazol-5-yl}pyridazin-1(6H)-yl]methyl}benzamide]"
9,0.0015,"N#CC1CCN(c2cccc(Cn3cc(-c4nc(-c5ccc(C6(C(F)(F)F)CC6)cc5)no4)ccc3=O)c2)CC1 [Example 12, 1-(3-{[2-oxo-5-(3-{4-[1-(trifluoromethyl)cyclopropyl]phenyl}-1,2,4-oxadiazol-5-yl)pyridin-1(2H)-yl]methyl}phenyl)piperidine-4-carbonitrile]"
10,0.02,"N#CC1CCN(c2cc(Cn3nc(-c4nc(-c5ccc(OC(F)(F)F)cc5)no4)ccc3=O)ccn2)CC1 [Example 94, 1-(4-{[6-oxo-3-{3-[4-(trifluoromethoxy)phenyl]-1,2,4-oxadiazol-5-yl}pyridazin-1(6H)-yl]methyl}pyridin-2-yl)piperidine-4-carbonitrile]"
11,0.02,"CC(C)(c1ccc(-c2noc(-c3ccc(=O)n(Cc4cccc(C(=O)N5CCOCC5)c4)c3)n2)cc1)C(F)(F)F [Example 35, 1-[3-(Morpholin-4-ylcarbonyl)benzyl]-5-{3-[4-(1,1,1-trifluoro-2-methylpropan-2-yl)phenyl]-1,2,4-oxadiazol-5-yl}pyridin-2(1H)-one]"
